Assay results: paper PMC5745756, “N,N-disubstituted azines attenuate LPS-mediated neuroinflammation in microglia and neuronal apoptosis via inhibiting MAPK signaling pathways” (BMC Neuroscience, 2017)

Tests used:
Assay type in all cases: cell-based, murine
PGE2 = experiment: ELISA of PGE2 in LPS-activated BV-2 culture medium; details: 5, 10 and 20 µM, LPS 24 h
Protocol: (§1) To measure TNF-α, IL-6, and PGE2, BV-2 cells were seeded in a 24-well plate at a density of 3 × 10^5 cells/well. The cells were treated with LPS (100 ng/mL) in the presence or absence of compound 3 for 24 h, and the media was collected and centrifuged. IL-6, TNF-α, and PGE2 produced in microglial culture supernatants […] were measured by competitive enzyme immunoassay kits (R&D systems, Minneapolis, MN, USA) in accordance with the manufacturer’s protocol.
(§2) Fig. 2 Effect of compound 3 on LPS-induced iNOS and COX2 expression in BV-2 cells. BV-2 cells were pretreated with various concentrations (5, 10, and 20 µM) of compound 3 for 30 min and activated with 100 ng/mL LPS. After 6 h, the cells were collected for analysis of iNOS and COX-2 expression using western blot analysis (a–c). Similarly, LPS activation was made for 24 h as chronic BV2 activation and the iNOS and COX-2 expression was measured (d). α-Tubulin was used as the loading control. The densitometric analysis of bands was performed as described in the methods section. After 24 h, the culture medium was subsequently collected to measure the quantity of PGE2 (e), IL-6 (f), and TNF-α (g) using ELISA analysis. […]

IL-6 = experiment: ELISA of IL-6 in LPS-activated BV-2 culture medium; details: LPS 24 h
Protocol: as §1, §2

p38 = experiment: Western blot of LPS-induced p38 phosphorylation in BV-2 cells; details: 5–20 µM; LPS 30 min, similar pattern at 24 h
Protocol: (§3) BV-2 cells were seeded in a 6-well plate at a density of 6 × 10^5 cells/well and exposed to LPS (100 ng/mL) in the presence or absence of compound 3 for required time. After treatment, cells were collected and lysed in cell lysis buffer (50 mM Tris–HCl, pH 8.0, 0.1% SDS, 150 mM NaCl, 1% NP-40, 0.02% sodium azide, 0.5% sodium deoxycholate, 100 µg/mL PMSF, and […]) for 24 h at 4 °C. The protein content was measured using a Bradford assay. Equal amounts of protein (30 µg) were separated using SDS-PAGE and transferred to a nitrocellulose membrane. The membrane was blocked for 1 h with 5% skim milk in tris-buffered saline with Tween-20 (TBST) and then incubated for 12 h with primary antibodies against α-tubulin (Sigma-Aldrich Cat. no: T5168), iNOS (Bioscience Cat. no: 610333, COX-2 (Santa Cruz Cat. no: sc-1745), ERK (Cell Signaling Cat. no: 9107s), pERK (Cell Signaling Cat. no: 5013s), JNK (Cell Signaling Cat. no: 9252s), pJNK (Cell Signaling Cat. no: 4671s), p38 (Cell Signaling Cat. no: 8690s), and pP38 (Cell Signaling Cat. no: 9211s), followed by incubation for 1 h with horseradish peroxidase-conjugated secondary antibodies (Cell Signaling) at 15 °C. […]
(§4) Fig. 3 Effect of compound 3 on MAPK pathway in LPS-induced BV-2 cells. […] The phosphorylation of p38, JNK, and ERK was measured by western blotting (a–c). […]

[1] = test system: c-Jun N-terminal kinase (JNK); experiment: Western blot of LPS-induced JNK phosphorylation in BV-2 cells; details: 5–20 µM; LPS 30 min, similar pattern at 24 h
Protocol: as §3, §4

[2] = test system: extracellular signal-regulated kinase (ERK); experiment: Western blot of LPS-induced ERK phosphorylation in BV-2 cells; details: 5–20 µM; LPS 30 min, similar pattern at 24 h
Protocol: as §3, §4

N2a cells = experiment: Neuronal cell viability (MTT) of N2a cells given conditioned media from LPS-stimulated BV-2 cells; details: Mus musculus, MTT after 24 h, read-out: N2a cell viability, % of the only LPS treated control value
Protocol: N2a cells were used as a representative neuronal cell line for the examination of apoptotic neuron viability using direct treatment of compound 3 with TNF-α activation as well as conditioned media (CM) from LPS-stimulated BV-2 cells treated with compound 3 [28]. This assay was performed following the methods described in our previous study, with slight modifications. To measure neuron viability, BV-2 cells were first seeded and treated with 100 ng/mL LPS in the presence or absence of compound 3. After 24 h, the CM was collected and transferred to N2a cells for a further 24 h. The cell viability of N2a cells was measured using the MTT assay. Well differentiated neuronal cells were used for the experimental purpose as shown in Additional file 1: Fig. S1.
Fig. 4 Neuroprotection of compound 3 in LPS-activated microglia in N2a cells. BV-2 microglial cells were pretreated with 5, 10, and 20 µM compound 3 for 30 min and stimulated with 100 ng/mL of LPS for 24 h. After 24 h of LPS treatment, the conditioned media (CM) were collected and transferred to N2a cells. After 24 h, MTT assay was done in the same CM treated N2a cells (a) and FACS analysis (b–h). An annexin V/PI apoptosis kit was used to quantify the percentage of cells undergoing apoptosis and necrosis (x-axis, annexin V; y-axis, PI) by using FACS analysis. CM-LPS treatment alone induced apoptosis and necrosis in N2a cells (g, h). […]

COc1cc(/C=C/C=N/N=C/C=C/c2ccc(O)c(OC)c2)ccc1O [Compound 3, 4,4′-(1E,1′E,3E,3′E)-3,3′-(hydrazine-1,2-diylidene)bis(prop-1-ene-1-yl-3-ylidene)bis(2-methoxyphenol)]
LPS-activated PGE2 production (PGE2): reduced
IL-6 secretion (IL-6; 20 µM): noticeable activity
IL-6 secretion (IL-6; 5 and 10 µM): did not significantly inhibit
LPS-induced phosphorylation of p38 (p38): significantly inhibited
LPS-induced phosphorylation of JNK [1]: significantly inhibited
Phosphorylation of ERK [2]: did not alter
viability at 10 µM (N2a cells; CM of BV-2 cells treated with 10 µM compound + LPS): 199%
viability at 20 µM (N2a cells; CM of BV-2 cells treated with 20 µM compound + LPS): 398%
